This note sets out measurements from patent publication US20020155084A1, “Nanoemulsion formulations” (The Regents of the University of the Michigan, priority 2000, published 2002).

The data set concerns hairy mouse skin. As to conditions: 2:1 nanoemulsion, aqueous phase 0.05 M HEPES pH 7.4; 5 μg/ml inulin or 3 μg/ml tranexamic acid, FIG. 9.

For the substance inulin, the marker permeation slope is listed as 0.233 % per hour per square centimeter.
